Test results: ChEMBL document CHEMBL4414607, “Protein Stability Effects in Aggregate-Based Enzyme Inhibition” (J Med Chem, 2019)

Columns and labels:
[1] = tested on: Bacteria; assay: Binding affinity to bacterial Beta-lactamase TEM-1 M182T mutant assessed as change in melting temperature at 100-fold molar excess compound concentration relative to apo-enzymes by SYPRO Orange dye based differential scanning fluorimetry
[2] = tested on: Bacteria; assay: Binding affinity to bacterial Beta-lactamase TEM-1 M182T/G238S mutant assessed as change in melting temperature at 100-fold molar excess compound concentration relative to apo-enzymes by SYPRO Orange dye based differential scanning fluorimetry
[3] = biological target: Beta-lactamase TEM (Bacteria) (UniProt P62593); assay: Binding affinity to bacterial wild type Beta-lactamase TEM-1 assessed as change in melting temperature at 100-fold molar excess compound concentration relative to apo-enzymes by SYPRO Orange dye based differential scanning fluorimetry
[4] = tested on: Bacteria
[5] = tested on: Bacteria; assay: Binding affinity to bacterial Beta-lactamase TEM-1 G238S mutant assessed as change in melting temperature at 100-fold molar excess compound concentration relative to apo-enzymes by SYPRO Orange dye based differential scanning fluorimetry
[6] = tested on: Bacteria; assay: Binding affinity to bacterial Beta-lactamase TEM-1 D179G mutant assessed as change in melting temperature at 100-fold molar excess compound concentration relative to apo-enzymes by SYPRO Orange dye based differential scanning fluorimetry

Beta-lactamase TEM (Bacteria), sequence (P62593 whole entry): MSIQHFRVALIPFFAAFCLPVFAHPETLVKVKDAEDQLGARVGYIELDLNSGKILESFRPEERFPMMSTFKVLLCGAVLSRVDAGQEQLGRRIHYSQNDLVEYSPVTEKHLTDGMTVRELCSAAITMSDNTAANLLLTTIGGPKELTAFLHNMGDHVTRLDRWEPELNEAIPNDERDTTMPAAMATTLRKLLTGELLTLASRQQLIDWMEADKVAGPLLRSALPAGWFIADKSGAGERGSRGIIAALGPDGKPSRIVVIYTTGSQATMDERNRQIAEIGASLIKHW

CO[C@@]1(NC(=O)[C@H](C(=O)O)c2ccc(O)cc2)C(=O)N2C(C(=O)O)=C(CSc3nnnn3C)CO[C@@H]21
ΔTm [1]: -4.1 °C | ΔTm [2]: -0.7 °C | ΔTm [3]: -4.5 °C | ΔTm [4]: -3.3 °C | ΔTm [5]: -1.9 °C | ΔTm [6]: 2.9 °C
